Experimental data: ChEMBL document CHEMBL3046801, “Synthesis of 2-R1-2-(4-(2-fluoroethoxy)benzamido)acetate as potential PET imaging agents” (Med Chem Res, 2012)

Key:
Nucleic Acid [1] = experiment: Ratio of drug uptake in tumor to muscle in Mus musculus KM (mouse) at 120 min; format: ADME; conditions: in vivo, 2 h
Brain [2] = experiment: Biodistribution in tumor bearing Mus musculus KM (mouse) brain at 15 min by microPET imaging analysis; format: ADME, organism-based; conditions: in vivo, 0.25 h
Brain [3] = experiment: Biodistribution in tumor bearing Mus musculus KM (mouse) brain at 60 min by microPET imaging analysis; format: ADME, organism-based; conditions: in vivo, 1 h
Heart [4] = experiment: Biodistribution in tumor bearing Mus musculus KM (mouse) heart at 5 min by microPET imaging analysis; format: ADME, organism-based; conditions: in vivo
Tumour [5] = experiment: Biodistribution in Mus musculus KM (mouse) tumor at 5 min by microPET imaging analysis; format: ADME, organism-based, Neoplasm; conditions: in vivo
Kidney [6] = experiment: Biodistribution in tumor bearing Mus musculus KM (mouse) kidney at 120 min by microPET imaging analysis; format: ADME, organism-based; conditions: in vivo, 2 h
Liver [7] = experiment: Biodistribution in tumor bearing Mus musculus KM (mouse) liver at 15 min by microPET imaging analysis; format: ADME, organism-based; conditions: in vivo, 0.25 h
Muscle tissue [8] = experiment: Biodistribution in tumor bearing Mus musculus KM (mouse) muscle at 5 min by microPET imaging analysis; format: ADME, organism-based; conditions: in vivo
Nucleic Acid [9] = experiment: Ratio of drug uptake in tumor to muscle in Mus musculus KM (mouse) at 30 min; format: ADME, nucleic-acid assay; conditions: in vivo, 0.5 h
Nucleic Acid [10] = experiment: Ratio of drug uptake in tumor to muscle in Mus musculus KM (mouse) at 15 min; format: ADME, nucleic-acid assay; conditions: in vivo, 0.25 h
Lung [11] = experiment: Biodistribution in tumor bearing Mus musculus KM (mouse) Lung at 60 min by microPET imaging analysis; format: ADME, organism-based; conditions: in vivo, 1 h
Blood [12] = experiment: Biodistribution in tumor bearing Mus musculus KM (mouse) blood at 5 min by microPET imaging analysis; format: ADME, organism-based; conditions: in vivo
Heart [13] = experiment: Biodistribution in tumor bearing Mus musculus KM (mouse) heart at 120 min by microPET imaging analysis; format: ADME, organism-based; conditions: in vivo, 2 h
Lung [14] = experiment: Biodistribution in tumor bearing Mus musculus KM (mouse) Lung at 5 min by microPET imaging analysis; format: ADME, organism-based; conditions: in vivo
Muscle tissue [15] = experiment: Biodistribution in tumor bearing Mus musculus KM (mouse) muscle at 15 min by microPET imaging analysis; format: ADME, organism-based; conditions: in vivo, 0.25 h
Blood [16] = experiment: Biodistribution in tumor bearing Mus musculus KM (mouse) blood at 30 min by microPET imaging analysis; format: ADME, organism-based; conditions: in vivo, 0.5 h
Spleen [17] = experiment: Biodistribution in tumor bearing Mus musculus KM (mouse) spleen at 60 min by microPET imaging analysis; format: ADME, organism-based; conditions: in vivo, 1 h
Heart [18] = experiment: Biodistribution in tumor bearing Mus musculus KM (mouse) heart at 60 min by microPET imaging analysis; format: ADME, organism-based; conditions: in vivo, 1 h
Kidney [19] = experiment: Biodistribution in tumor bearing Mus musculus KM (mouse) kidney at 60 min by microPET imaging analysis; format: ADME, organism-based; conditions: in vivo, 1 h
Heart [20] = experiment: Biodistribution in tumor bearing Mus musculus KM (mouse) heart at 30 min by microPET imaging analysis; format: ADME, organism-based; conditions: in vivo, 0.5 h
Kidney [21] = experiment: Biodistribution in tumor bearing Mus musculus KM (mouse) kidney at 30 min by microPET imaging analysis; format: ADME, organism-based; conditions: in vivo, 0.5 h
Lung [22] = experiment: Biodistribution in tumor bearing Mus musculus KM (mouse) Lung at 30 min by microPET imaging analysis; format: ADME, organism-based; conditions: in vivo, 0.5 h
Tumour [23] = experiment: Biodistribution in Mus musculus KM (mouse) tumor at 30 min by microPET imaging analysis; format: ADME, organism-based, Neoplasm; conditions: in vivo, 0.5 h
Tumour [24] = experiment: Biodistribution in Mus musculus KM (mouse) tumor at 15 min by microPET imaging analysis; format: ADME, organism-based, Neoplasm; conditions: in vivo, 0.25 h
Blood [25] = experiment: Biodistribution in tumor bearing Mus musculus KM (mouse) blood at 60 min by microPET imaging analysis; format: ADME, organism-based; conditions: in vivo, 1 h
Spleen [26] = experiment: Biodistribution in tumor bearing Mus musculus KM (mouse) spleen at 5 min by microPET imaging analysis; format: ADME, organism-based; conditions: in vivo
Kidney [27] = experiment: Biodistribution in tumor bearing Mus musculus KM (mouse) kidney at 5 min by microPET imaging analysis; format: ADME, organism-based; conditions: in vivo
Kidney [28] = experiment: Biodistribution in tumor bearing Mus musculus KM (mouse) kidney at 15 min by microPET imaging analysis; format: ADME, organism-based; conditions: in vivo, 0.25 h
Spleen [29] = experiment: Biodistribution in tumor bearing Mus musculus KM (mouse) spleen at 120 min by microPET imaging analysis; format: ADME, organism-based; conditions: in vivo, 2 h
Muscle tissue [30] = experiment: Biodistribution in tumor bearing Mus musculus KM (mouse) muscle at 60 min by microPET imaging analysis; format: ADME, organism-based; conditions: in vivo, 1 h
Heart [31] = experiment: Biodistribution in tumor bearing Mus musculus KM (mouse) heart at 15 min by microPET imaging analysis; format: ADME, organism-based; conditions: in vivo, 0.25 h
Muscle tissue [32] = experiment: Biodistribution in tumor bearing Mus musculus KM (mouse) muscle at 120 min by microPET imaging analysis; format: ADME, organism-based; conditions: in vivo, 2 h
Blood [33] = experiment: Biodistribution in tumor bearing Mus musculus KM (mouse) blood at 120 min by microPET imaging analysis; format: ADME, organism-based; conditions: in vivo, 2 h
Brain [34] = experiment: Biodistribution in tumor bearing Mus musculus KM (mouse) brain at 30 min by microPET imaging analysis; format: ADME, organism-based; conditions: in vivo, 0.5 h
Liver [35] = experiment: Biodistribution in tumor bearing Mus musculus KM (mouse) liver at 120 min by microPET imaging analysis; format: ADME, organism-based; conditions: in vivo, 2 h
Tumour [36] = experiment: Biodistribution in Mus musculus KM (mouse) tumor at 120 min by microPET imaging analysis; format: ADME, organism-based, Neoplasm; conditions: in vivo, 2 h
Liver [37] = experiment: Biodistribution in tumor bearing Mus musculus KM (mouse) liver at 30 min by microPET imaging analysis; format: ADME, organism-based; conditions: in vivo, 0.5 h
Nucleic Acid [38] = experiment: Ratio of drug uptake in tumor to muscle in Mus musculus KM (mouse) at 60 min; format: ADME, nucleic-acid assay; conditions: in vivo, 1 h
Muscle tissue [39] = experiment: Biodistribution in tumor bearing Mus musculus KM (mouse) muscle at 30 min by microPET imaging analysis; format: ADME, organism-based; conditions: in vivo, 0.5 h
Blood [40] = experiment: Biodistribution in tumor bearing Mus musculus KM (mouse) blood at 15 min by microPET imaging analysis; format: ADME, organism-based; conditions: in vivo, 0.25 h
Liver [41] = experiment: Biodistribution in tumor bearing Mus musculus KM (mouse) liver at 60 min by microPET imaging analysis; format: ADME, organism-based; conditions: in vivo, 1 h
Liver [42] = experiment: Biodistribution in tumor bearing Mus musculus KM (mouse) liver at 5 min by microPET imaging analysis; format: ADME, organism-based; conditions: in vivo
Tumour [43] = experiment: Biodistribution in Mus musculus KM (mouse) tumor at 60 min by microPET imaging analysis; format: ADME, organism-based, Neoplasm; conditions: in vivo, 1 h
Brain [44] = experiment: Biodistribution in tumor bearing Mus musculus KM (mouse) brain at 120 min by microPET imaging analysis; format: ADME, organism-based; conditions: in vivo, 2 h
Brain [45] = experiment: Biodistribution in tumor bearing Mus musculus KM (mouse) brain at 5 min by microPET imaging analysis; format: ADME, organism-based; conditions: in vivo
Spleen [46] = experiment: Biodistribution in tumor bearing Mus musculus KM (mouse) spleen at 30 min by microPET imaging analysis; format: ADME, organism-based; conditions: in vivo, 0.5 h
Spleen [47] = experiment: Biodistribution in tumor bearing Mus musculus KM (mouse) spleen at 15 min by microPET imaging analysis; format: ADME, organism-based; conditions: in vivo, 0.25 h
Lung [48] = experiment: Biodistribution in tumor bearing Mus musculus KM (mouse) Lung at 120 min by microPET imaging analysis; format: ADME, organism-based; conditions: in vivo, 2 h
Lung [49] = experiment: Biodistribution in tumor bearing Mus musculus KM (mouse) Lung at 15 min by microPET imaging analysis; format: ADME, organism-based; conditions: in vivo, 0.25 h

Ratio (Nucleic Acid [1]): 1.74
Drug uptake (Brain [2]): 4.55 % ID/g
Drug uptake (Brain [3]): 3.51 % ID/g
Drug uptake (Heart [4]): 5.33 % ID/g
Drug uptake (Tumour [5]): 1.96 % ID/g
Drug uptake (Kidney [6]): 0.52 % ID/g
Drug uptake (Liver [7]): 0.92 % ID/g
Drug uptake (Muscle tissue [8]): 2.92 % ID/g
Ratio (Nucleic Acid [9]): 1.52
Ratio (Nucleic Acid [10]): 1.28
Drug uptake (Lung [11]): 1.52 % ID/g
Drug uptake (Blood [12]): 2.01 % ID/g
Drug uptake (Heart [13]): 9.6 % ID/g
Drug uptake (Lung [14]): 2.37 % ID/g
Drug uptake (Muscle tissue [15]): 2.33 % ID/g
Drug uptake (Blood [16]): 0.29 % ID/g
Drug uptake (Spleen [17]): 1.83 % ID/g
Drug uptake (Heart [18]): 8.87 % ID/g
Drug uptake (Kidney [19]): 0.9 % ID/g
Drug uptake (Heart [20]): 6.42 % ID/g
Drug uptake (Kidney [21]): 1.07 % ID/g
Drug uptake (Lung [22]): 1.4 % ID/g
Drug uptake (Tumour [23]): 3.16 % ID/g
Drug uptake (Tumour [24]): 2.97 % ID/g
Drug uptake (Blood [25]): 0.19 % ID/g
Drug uptake (Spleen [26]): 1.92 % ID/g
Drug uptake (Kidney [27]): 3.36 % ID/g
Drug uptake (Kidney [28]): 2.05 % ID/g
Drug uptake (Spleen [29]): 1.35 % ID/g
Drug uptake (Muscle tissue [30]): 1.99 % ID/g
Drug uptake (Heart [31]): 6.12 % ID/g
Drug uptake (Muscle tissue [32]): 1.85 % ID/g
Drug uptake (Blood [33]): 0.15 % ID/g
Drug uptake (Brain [34]): 4.25 % ID/g
Drug uptake (Liver [35]): 0.49 % ID/g
Drug uptake (Tumour [36]): 3.12 % ID/g
Drug uptake (Liver [37]): 0.46 % ID/g
Ratio (Nucleic Acid [38]): 1.94
Drug uptake (Muscle tissue [39]): 2.08 % ID/g
Drug uptake (Blood [40]): 0.94 % ID/g
Drug uptake (Liver [41]): 0.5 % ID/g
Drug uptake (Liver [42]): 1.85 % ID/g
Drug uptake (Tumour [43]): 3.86 % ID/g
Drug uptake (Brain [44]): 1.89 % ID/g
Drug uptake (Brain [45]): 3.81 % ID/g
Drug uptake (Spleen [46]): 1.75 % ID/g
Drug uptake (Spleen [47]): 1.98 % ID/g
Drug uptake (Lung [48]): 1.05 % ID/g
Drug uptake (Lung [49]): 1.96 % ID/g
SMILES: OC[C@H]1OC(O)[C@H]([18F])[C@@H](O)[C@@H]1O (some centres undefined) [FLUDEOXYGLUCOSE F 18]
